According to US5618675A, “Methods and compositions for detecting lipopolysaccharides using CAP18 fragments” (Panorama Research, Inc., dated 1997):
Read-outs that look alike come from different tables or passages of the source.

Experiments:
[1] = test system: RAW 264.7 cells; assay type: cell-based, murine; details: for Inhibition of LPS-induced RNI-IC50: LPS-induced (2.5 ng/ml LPS in FIG. 6B); for concentrations at which peptides are active in the bioassay: day-to-day variation
Experimental: From the sequence of the CAP18 cDNA, it was apparent that the putative N-terminal peptide of CAP18 was in fact an internal fragment of the CAP18 protein. We therefore tried to reconfirm the original protein sequence. Neutrophil-derived heparin bound cationic proteins were prepared as described above and applied to a C18 reverse phase HPLC (FIG. 1). We sequenced the major peaks. Peaks at fractions 14.5 and 15.2 correspond to defensins MCP1 and MCP2 (Territo et al. (1989) J. Clin. Invest. 84:2017-2019), respectively. Fraction 25.8 is macrophage related protein 14 (MRP14) (Odink et al. (1987) Nature 330:80-82). The fraction at 20.3 minutes corresponds to a fragment of CAP18 of approximately 4-5 kD. […] The murine macrophage cell line RAW 264.7 (obtained from ATCC) and thioglycolate-elicited murine peritoneal exudate cells are used to produce RNI. Cells are cultured at 1×10^6 /ml. in RPMI-1640 +2.5% FCS in 24 well plates in the presence or absence of different concentrations of LPS or murine rlFNγ. After 24 hr. incubation at 37° C. the cell free supernatant is collected and tested for the presence of RNI. Accumulation of nitrite in the medium is measured by a colorimetric assay based on the Griess reaction (Green et al. (1982) Anal. Biochem. 126:11) using sodium nitrite as standards. Sample (50 μl) is mixed with 50 μl of Griess reagent (1% sulfanilamide, 0.1% naphthalene diamine dihydrochloride, 2.5% H3 PO4) and after 10 min. at room temperature absorbance is read at 570 nm.

[2] = test system: Salmonella minnesota ReLPS sensitized sheep erythrocytes; experiment: LPS hemagglutination assay (MAC); assay type: binding
Experimental: (§1) For hemagglutination assays, erythrocytes were sensitized with LPS as follows. One ml of 1% erythrocyte suspension (human 0 type, C3H/HeN mouse or sheep) was mixed with 0.2 ml of LPS solution and incubated at 37° C. for 30 min, followed by washing with phosphate buffered saline (PBS), and then the concentration of suspension was adjusted to 1.0%. In the case of S-LPS, the solution was heated at 100° C. for 1 hour before sensitization of erythrocytes. […] Activity of CAP was expressed as a minimum agglutinating concentration (MAC) of CAP. According to the method of Kirikae et al. (1986) Microbiol. Immunol. 30:269-274, 50 μl of 2-fold serial dilution of Re-LPS was added to 50 μl of 1.0% rabbit erythrocyte suspension, and incubated at 37° C. for 3, hour. Minimum agglutinating concentration of Re-LPS was expressed as 1 HA unit.

[3] = test system: E. coli 0127:B8 LPS; experiment: Inhibition of RNIP-mediated hemagglutination by LPS; assay type: binding; details: #36-1 at 16 μg/ml, RNIP (#197) at 25 μg/ml preincubated with LPS 30 minutes
Experimental: as §1
(§2) Another series of experiments was performed to determine if the #36-1 and #197 (RNIP) peptides were capable of binding to LPS from various species of Gram-negative bacteria. For these experiments, sheep red blood cells were sensitized with Salmonella minnesota Re-LPS. Peptides #36-1 and #197 (RNIP) were preincubated with various preparations of LPS. Both peptides bind to a diverse group of lipopolysaccharides.
(§3) °Peptide #361 (16 μg/ml) and RNIP (#197) (25 μg/ml) were
(§4) preincubated with each LPS preparation at 370 for 30 minutes, and each
(§5) reaction mixture was added to sheep erythrocytes sensitized with RELPS.

[4] = test system: E. coli J5 LPS; experiment: as above; assay type: binding; details: #36-1 at 16 μg/ml, RNIP (#197) at 25 μg/ml preincubated with LPS 30 minutes
Experimental: as §1, §2, §3, §4, §5

[5] = test system: two strains of Mycobacterium avium; experiment: Antimicrobial activity; assay type: cell-based; details: range 0-20 μg/ml
[6] = test system: thioglycolate-stimulated murine peritoneal macrophages; experiment: LPS-induced tissue factor generation by macrophages; assay type: cell-based; details: for inhibition of LPS induced tissue factor: peptide 1 μg/ml, 6 hr, FIG. 12
Experimental: […] Cells were cultured for 6 hours prior to assay of tissue factor by clotting assay.
[…] Production of tissue factor after 6 hr. was measured by clotting assay. […] In the absence of LPS no tissue factor is synthesized by these cells.

[7] = test system: Human plasma; experiment: Prothrombin time (PT); assay type: biochemical; details: for inhibition of prothrombin time (PT), words: FIG. 14A
Experimental: (§6) Clotting method: Human plasma (Ortho plasma control, Ortho Diagnostic Co.). ATPP reagent (Organotechnika, Tokyo, Japan). Standard tissue factor, rabbit brain thromboplastin (Simplastin, ONO Pharmaceutical, Tokyo, Japan). Purified human factor VII, factor X, factor Xa (Sigma Chemical Co., St. Louis, Mo.). Russell Viper venom (RVV) and Echis carinatus venom (ECV, Sigma Co.).
(§7) Instrumentation: Clotting assays were carried out using a Fibrometer (BioQuest Division, Becton Dickinson; Cokeysville, […]., USA).
Human plasma (100 μl) was incubated with 100 μl of each peptide at 37° C. for 3 min., then 100 μl of tissue factor (250 μg/ml) CaCl2 was added and clotting time was measured.

[8] = test system: Human plasma; experiment: Activated partial thromboplastin time (APTT); assay type: biochemical
Experimental: as §6, §7
Human plasma (100 μl), 100 μl of APTT reagent and 100 μl of peptide was incubated at 37° C. for 5 min after which CaCl2 was added and clotting time measured.

[9] = target: T1, factor Xa (Homo sapiens, UniProt P00742); experiment: Direct inhibition of Xa, substrate S2222; assay type: biochemical; details: for direct Xa inhibition: concentrations over 10 μg/ml, substrate S2222; for IC50 / IC50, Direct Xa: synthetic substrate
T1 construct: purchased Sigma Chemical Co., St. Louis, Mo
Text: as §6
Synthetic chromogenic substrate method: Substrate for factor Xa, S2222 (Kabi, Bz-Ile-Glu-Arg-pNA) was used. Substrate for factor II (prothrombin), Boc-Val-Pro-Arg-pNA (Sigma Chemical Co.) was used.
Next the effect of the RNIP peptides on the conversion of factor X to Xa was studied by two methods. […] In summary these studies confirmed that the peptides inhibit the clotting cascade by inhibiting the conversion of factor X to Xa.

[10] = test system: Salmonella typhimurium; experiment: Antibacterial CFU assay; details: read-out: anti-bacterial IC50 (CFU); FIG. 6D
[11] = test system: Pseudomonas aeruginosa; experiment: Antibacterial CFU assay; details: for IC50: read-out: anti-bacterial IC50 (CFU)
[12] = test system: methicillin-sensitive Staphylococcus aureus; experiment: Antibacterial CFU assay; details: for IC50: read-out: IC50, inhibition of CFU
[13] = test system: methicillin-resistant Staphylococcus aureus; experiment: Antibacterial CFU assay; details: for IC50: read-out: IC50, inhibition of CFU

T1 sequence (P00742 41-179 limits assumed): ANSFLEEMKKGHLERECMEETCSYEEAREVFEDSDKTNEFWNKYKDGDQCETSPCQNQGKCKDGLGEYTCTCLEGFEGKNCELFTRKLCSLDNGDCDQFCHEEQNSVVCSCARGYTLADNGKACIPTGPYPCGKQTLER
T1 sequence (P00742 235-488 limits assumed): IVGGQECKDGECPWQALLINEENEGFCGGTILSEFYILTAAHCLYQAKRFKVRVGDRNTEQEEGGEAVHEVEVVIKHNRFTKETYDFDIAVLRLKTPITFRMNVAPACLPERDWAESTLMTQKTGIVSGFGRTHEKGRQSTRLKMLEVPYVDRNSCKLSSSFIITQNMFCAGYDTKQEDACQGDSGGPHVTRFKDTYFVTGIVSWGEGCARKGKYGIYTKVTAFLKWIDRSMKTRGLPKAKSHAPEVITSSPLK

Substance | activity in hemagglutination and inhibition of LPS-induced RNI [1] | Inhibition of LPS-induced RNI-IC50 [1] | concentrations at which peptides are active in the bioassay [1] [nM] | Hemagglutination MAC (minimum agglutinating concentration) [2] [µg/mL] | MIC (minimal inhibitory concentration of LPS) [3] [µg/mL] | MIC (minimal inhibitory concentration of LPS) [4] [µg/mL] | activity versus two strains of Mycobacterium avium [5] | inhibition of LPS induced tissue factor [6] | IC50, Prothrombin time [7] [µg/mL] | inhibition of prothrombin time (PT), words [7] | IC50, Activate Partial Thromboplastin time [8] [µg/mL] | direct Xa inhibition [9] | IC50 [9] [nM] | IC50, Direct Xa [9] [µg/mL] | IC50 [10] [nM] | IC50 [11] [nM] | IC50, inhibition of CFU [12] [µg/mL] | IC50 [12] [nM] | IC50, inhibition of CFU [13] [µg/mL] | IC50 [13] [nM] | further results
36-1: synthetic rabbit RNIP-derived fragment, amino acids 135-166 of SEQ ID NO:4 (GLRKRLRKFRNKIKEKLKKIGQKIQGLLPKLA) | active | 0.08 µg/mL | 10 to 50 | 3.9 | 15.6 | 7.8 | inactive | inhibition | 2.0 | inhibited | 3.8 | No evidence of direct Xa inhibition | 8000 to 46000 | 45 to 250 | 220 to 280 | < 50 | 0.58 | 110 | 0.72 | 130 | IC50 ([8]; read-out: IC50, Activate Partial Thromboplastin time): 700 nM; anti-bacterial IC50 (CFU) [11]: < 0.25 µg/mL
RNIP: reactive nitrogen inhibitory protein, amino acids 135-171 of SEQ ID NO:4 (rabbit CAP18 C-terminus); purified from granulocytes or synthetic (#197) (GLRKRLRKFRNKIKEKLKKIGQKIQGLLPKLAPRTDY) | active | about 0.2 μg/ml | 10 to 50 | 7.9 | 62.5 | 15.6 | inactive | inhibition | 1.9 | inhibited | 3.2 | No evidence of direct Xa inhibition | 9000 to 33000 | 55 to 200 | 220 to 280 | < 40 | 0.94 | 150 | 1 | 160 | IC50 ([1]; 2.5 ng/ml LPS, FIG. 6B, read-out: 50% inhibitory concentration (IC50), LPS-induced RNI production): ~30 nM; capacity to inhibit LPS-stimulated nitrogen radical release from macrophages ([1]; HPLC-purified rabbit peptides, FIG. 5): active; reactive nitrogen intermediates (RNI) ([1]; LPS (2.5 ng/ml), RNIP (1:1), stimulus alone 27): 4 µM; reactive nitrogen intermediates (RNI) ([1]; LPS (2.5 ng/ml), RNIP (1:10), stimulus alone 27): 16 µM; reactive nitrogen intermediates (RNI) ([1]; LPS (2.5 ng/ml), RNIP (1:100), stimulus alone 27): 24 µM; Inhibition of LPS-induced RNI-IC50 ([1]; listed as 197/RNIP): 0.2 µg/mL; reactive nitrogen intermediates (RNI) ([1]; Murine IFNγ (250 U), RNIP (1:1), stimulus alone 30): 15 µM; reactive nitrogen intermediates (RNI) ([1]; Murine IFNγ (250 U), RNIP (1:10), stimulus alone 30): 18 µM; reactive nitrogen intermediates (RNI) ([1]; Murine IFNγ (250 U), RNIP (1:100), stimulus alone 30): 20 µM; inhibition of LPS-induced tissue factor generation when peptide added after LPS ([6]; added as late as 3 hours after the LPS stimulus, FIG. 13): Significant inhibition; IC50 [7]: 300 nM; anti-bacterial IC50 (CFU) ([11]; FIG. 6E): < 250 µg/mL
